What was measured:
[1] = tested on: HIV-1 (clinical paediatric strain RoJo or WeJo) in human PBMCs; assay: Anti-HIV efficacy evaluation in fresh human PBMCs; assay type: cell-based; settings: for IC50 / IC90: Human immunodeficiency virus 1, PBMC, 168 h, seven days following infection; for IC50: concentration inhibiting virus replication by 50%; for IC90: concentration inhibiting virus replication by 90%
Method: Representative compounds of the present invention were tested for antiviral activity against HIV-1 in human peripheral blood mononuclear cells (PBMCs) using the clinical paediatric HIV strain RoJo or WeJo. PBMCs were cultured under conditions which promote cell survival and HIV replication. Antiviral activity was tested for from 6-9 log10 serial dilutions of a 100 μM compound stock solution in DMSO.
Fresh PBMCs, seronegative for HIV and HBV, were isolated from screened donors (Interstate Blood Bank, Inc. Memphis, Term.). Cells were pelleted/washed 2-3 times by low speed centrifugation and re-suspension in PBS to remove contaminating platelets. […] Banded PBMCs were gently aspirated from the resulting interface and subsequently washed with PBS by low speed centrifugation. After the final wash, cells were enumerated by trypan blue exclusion and re-suspended in RPMI 1640 supplemented with fetal bovine serum (FBS), and L-glutamine, Phytohemagglutinin (PHA-P, Sigma). The cells were allowed to incubate at 37° C. After incubation, PBMCs were centrifuged and resuspended in RPMI 1640 with FBS, L-glutamine, penicillin, streptomycin, gentamycin, and recombinant human IL-2 (R&D Systems, Inc). IL-2 is included in the culture medium to maintain the cell division initiated by the PHA mitogenic stimulation. PBMCs were maintained in this with bi-weekly medium changes until used in the assay protocol. Cells were kept in culture for a maximum of two weeks before being deemed too old for use in assays and discarded. Monocytes were depleted from the culture as the result of adherence to the tissue culture flask.
For the standard PBMC assay, PHA-P stimulated cells from at least two normal donors were pooled, diluted and plated in the interior wells of a 96-well round bottom microplate. Pooling of mononuclear cells from more than one donor was used to minimise the variability observed between individual donors, which results from quantitative and qualitative differences in HIV infection and overall response to the PHA and IL-2 of primary lymphocyte populations. Each plate contained virus/cell control wells (cells plus virus), experimental wells (drug plus cells plus virus) and compound control wells (drug plus media […], necessary for MTS monitoring of cytotoxicity). Since HIV-1 is not cytopathic to PBMCs, this allows the use of the same assay plate for both antiviral activity and cytotoxicity measurements. Test drug dilutions were prepared in microtiter tubes and each concentration was placed in appropriate wells using the standard format. A predetermined dilution of virus stock was placed in each test well (final MOI≅0.1). The PBMC cultures were maintained for seven days following infection at 37° C., 5% CO2. After this period, cell-free supernatant samples were collected for analysis of reverse transcriptase activity and/or HIV p24 content. Following removal of supernatant samples, compound cytotoxicity was measured by addition of MTS to the plates for determination of cell viability. Wells were also examined microscopically and any abnormalities were noted.
Reverse transcriptase activity assay: A microtiter plate-based reverse transcriptase (RT) reaction was utilised (Buckheit et al., AIDS Research and Human Retroviruses 7:295-302, 1991). Tritiated thymidine triphosphate (^3H-TTP, 80 Ci/mmol, NEN) was received in 1:1 dH2O:Ethanol at 1 mCi/mL. Poly rA:oligo dT template:primer (Pharmacia) was prepared as a stock solution, followed by aliquoting and storage at −20° C. The RT reaction buffer was prepared fresh on a daily basis. The final reaction mixture was prepared by combining ^3H-TTP, dH2O, poly rA:oligo dT stock and reaction buffer. This reaction mixture was placed in a round bottom microtiter plate and supernatant containing virus was added and mixed. The plate was incubated at 37° C. for 60 minutes. Following incubation, the reaction volume was spotted onto DE81 filter-mats (Wallac), in a sodium phosphate buffer or 2×SSC (Life Technologies). […]

HCT-116 = assay: 72-h MTT cytotoxicity assay HCT-116; assay type: cell-based; settings: Homo sapiens, HCT-116, 72 h; Table 5; Colon
Method: (§1) MTT cytotoxicity assay. […] Standard 72-h MTT (thiazolyl blue; 3-[4,5-dimethylthiazol-2-yl]-2,5-diphenyltetrazolium bromide) assays were performed (Haselsberger, K.; Peterson, D. C.; Thomas, D. G.; Darling, J. L. Anti Cancer Drugs 1996, 7, 331-8; Loveland, B. E.; Johns, T. G.; Mackay, I. R.; Vaillant, F.; Wang, Z. X.; Hertzog, P. J. Biochemistry International 1992, 27, 501-10). In short: cells were seeded into 96-well plates according to doubling time and incubated overnight at 37° C. Test compounds were made up in DMSO and a 1/3 dilution series prepared in 100 μL cell media, added to cells (in triplicates) and incubated for 72 ho at 37° C. MTT was made up as a stock of 5 mg/mL in cell media and filter-sterilised. Media was removed from cells followed by a wash with 200 μL PBS.
(§2) MTT solution was then added at 20 μL per well and incubated in the dark at 37° C. for 4 h. MTT solution was removed and cells again washed with 200 μL PBS. MTT dye was solubilised with 200 μL per well of DMSO with agitation.

HL60 = assay: 72-h MTT cytotoxicity assay HL60; assay type: cell-based; settings: Homo sapiens, HL-60, 72 h; Table 5; Promyelocytic leukaemia
Method: as §1, §2

Lovo = assay: 72-h MTT cytotoxicity assay Lovo; assay type: cell-based; settings: Homo sapiens, Table 5, Colon
Method: as §1, §2

Hela = assay: 72-h MTT cytotoxicity assay Hela; assay type: cell-based; settings: Homo sapiens, Table 5, Cervix
Method: as §1, §2

[2] = biological target: SAPK2a (stress-activated protein kinase 2a) (Homo sapiens, UniProt Q16539); assay: Kinase assay SAPK2a; assay type: biochemical; settings: Table 3 selectivity panel; read-out: Kinase specificity IC50 SAPK2a
SAPK2a (stress-activated protein kinase 2a), sequence (Q16539 whole entry, species assumed): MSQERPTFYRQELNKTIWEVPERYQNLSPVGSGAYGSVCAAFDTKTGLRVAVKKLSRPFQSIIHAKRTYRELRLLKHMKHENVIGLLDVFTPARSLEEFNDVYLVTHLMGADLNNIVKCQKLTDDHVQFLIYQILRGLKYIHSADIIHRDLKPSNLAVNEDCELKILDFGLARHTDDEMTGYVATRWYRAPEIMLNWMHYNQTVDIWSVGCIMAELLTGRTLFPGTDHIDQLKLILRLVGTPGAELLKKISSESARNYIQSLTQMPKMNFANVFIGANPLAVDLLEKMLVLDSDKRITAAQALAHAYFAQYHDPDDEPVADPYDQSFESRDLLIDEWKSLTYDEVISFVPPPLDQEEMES
Method: Kinase assays. […] This was achieved by measurement of incorporation of radioactive phosphate from ATP into appropriate polypeptide substrates. Recombinant protein kinases and kinase complexes were produced or obtained commercially. Assays were performed using 96-well plates and appropriate assay buffers (typically 25 mM β-glycerophosphate, 20 mM MOPS, 5 mM EGTA, 1 mM DTT, 1 mM […], pH 7.4), into which were added 2-4 μg of active enzyme with appropriate substrates. The reactions were initiated by addition of Mg/ATP mix (15 mM MgCl2+100 μM ATP with 30-50 kBq per well of [γ-^32P]-ATP) and mixtures incubated as required at 30° C. Reactions were stopped on ice, followed by filtration through p81 filterplates or GF/C filterplates (Whatman Polyfiltronics, Kent, UK). After washing 3 times with 75 mM aq orthophosphoric acid, plates were dried, scintillant added and incorporated radioactivity measured in a scintillation counter (TopCount, Packard Instruments, Pangbourne, Berks, UK). Compounds for kinase assay were made-up as 10 mM stocks in DMSO and diluted into 10% DMSO inrassay buffer.

Messa-Dx5 = assay: 72-h MTT cytotoxicity assay Messa-Dx5; assay type: cell-based; settings: Homo sapiens, MES-SA/Dx5, 72 h; Table 5; Uterine
Method: as §1, §2

AGS = assay: 72-h MTT cytotoxicity assay AGS; assay type: cell-based; settings: Homo sapiens, Table 5, Gastric adenocarcinoma
Method: as §1, §2

| Compound | IC50 [1] | IC90 [1] | IC50 (HCT-116) | IC50 (HL60) | IC50 (Lovo) | IC50 (Hela) | IC50 [2] | IC50 (Messa-Dx5) | IC50 (AGS) | anti-viral effect in cell based assays [1] |
| --- | --- | --- | --- | --- | --- | --- | --- | --- | --- | --- |
| CCNc1nc(C)c(-c2ccnc(Nc3ccc(N4CCOCC4)cc3)n2)s1 [Compound 4, [4-(2-Ethylamino-4-methyl-thiazol-5-yl)-pyrimidin-2-yl]-(4-morpholin-4-yl-phenyl)-amine] | 166 nM | 295 nM | – | – | – | – | – | – | – | – |
| Cc1nc(NC(=O)[C@H](N)[C@@H](C)O)sc1-c1ccnc(Nc2cccc([N+](=O)[O-])c2)n1 [Compound 15, (2R,3R)-2-Amino-3-hydroxy-N-{4-methyl-5-[2-(3-nitro-phenylamino)-pyrimidin-4-yl]-thiazol-2-yl}-butyramide] | 124 nM | 385 nM | 600 nM | 2200 nM | 700 nM | 700 nM | > 100000 nM | 400 nM | 1100 nM | – |
| Cc1nc(C)c(-c2ccnc(Nc3ccc(NC(=O)CN4CCCC4)cc3)n2)s1 [Compound 53, N-{4-[4-(2,4-Dimethyl-thiazol-5-yl)-pyrimidin-2-ylamino]-phenyl}-2-pyrrolidin-1-yl-acetamide] | 812 nM | 871 nM | – | – | – | – | – | – | – | – |
| CNc1nc(C)c(-c2ccnc(Nc3ccc(N4CCN(Cc5ccccc5)CC4)cc3)n2)s1 [Compound 11, [4-(4-Benzyl-piperazin-1-yl)-phenyl]-[4-(4-methyl-2-methylamino-thiazol-5-yl)-pyrimidin-2-yl]-amine] | – | – | 600 nM | 1700 nM | 2000 nM | 6200 nM | > 100000 nM | 200 nM | 1300 nM | – |
| CNc1nc(C)c(-c2ccnc(Nc3ccc(N4CCOCC4)cc3)n2)s1 [Compound 3, [4-(2-N-Methylamino-4-methyl-thiazol-5-yl)-pyrimidin-2-yl]-(4-morpholinophenyl)-amine] | 297 nM | 679 nM | – | – | – | – | > 100000 nM | – | – | – |
| Cc1nc(N)sc1-c1ccnc(Nc2ccc(N3CCOCC3)cc2)n1 [Compound 1, [4-(2-Amino-4-methyl-thiazol-5-yl)-pyrimidin-2-yl]-(4-morpholin-4-yl-phenyl)-amine] | 1330 nM | 2640 nM | 900 nM | 1800 nM | 900 nM | 1800 nM | > 100000 nM | 200 nM | 1100 nM | particularly effective anti-viral agent |
| CC[C@@H](N)C(=O)Nc1nc(C)c(-c2ccnc(Nc3cccc([N+](=O)[O-])c3)n2)s1 [Compound 16, (2R)-2-Amino-N-{4-methyl-5-[2-(3-nitro-phenylamino)-pyrimidin-4-yl]-thiazol-2-yl}-butyramide] | – | – | 300 nM | 600 nM | 300 nM | 400 nM | > 100000 nM | 100 nM | 300 nM | – |

— patent US7432260B2, “Pyrimidine compounds” (Cyclacel Limted, priority 2002, dated 2008)
